Tests used:
DRG neurons = experiment: Base exchange products in DRG explant cultures (metabolite extraction, HPLC); type: cell-based, mouse; settings: 4 h; for SARM1 dependence of base exchange product formation: wild-type vs Sarm1^−/− DRG cultures
Method: Dorsal Root Ganglia (DRG) were dissected from C57BL/6J (RRID IMSR_JAX:000664) or Sarm1^-/- (RRID MGI_3765957) E13.5-E14.5 mouse embryos. Explants were cultured in 35 mm tissue culture dishes pre-coated with poly-L-lysine (20 μg/ml for 1 h; Merck) and laminin (20 μg/ml for 1 h; Merck) in Dulbecco's Modified Eagle's Medium (DMEM, Gibco) with 1 % penicillin/streptomycin (Thermo Fisher Scientific), 33 ng/ml 2.5S NGF (Thermo Fisher Scientific) and 2% B27 (Gibco). 4 μM aphidicolin (Merck) was used to reduce proliferation and viability of small numbers of non-neuronal cells ([Loreto and Gilley, 2020]).
Wild-type and Sarm1^−/− DRG neurons were treated at DIV7 with 3-acetylpyridine (AcPyr) or vehicle (H2O), or with vacor or vehicle (H2O with 4% 1 N HCl). Proper drug concentrations and times of collection were determined first by dedicated experiments (see Figure 5A). At the indicated time-point, wild-type and Sarm1^−/− DRG whole explant cultures (typically 30-60 ganglia per condition) were collected, washed in ice-cold PBS and rapidly frozen in dry ice, and stored at −80°C until processed. Next extraction was carried out as reported by grinding in liquid N2, resuspending in HClO4 containing cAMP as internal standard for recovery calculations, sonicating, and neutralizing with K2CO3 ([Mori et al., 2014]). Next HPLC analyses to detect and measure the base exchange formed products, i.e. AcPyrAD or the vacorylated compound VAD, were carried out as described above in the paragraph “NADase assays”. In all samples, recovery yields from spiked cAMP were at least 96%. Furthermore, pellets after extraction of soluble nucleotides were treated as reported ([Mori et al., 2014]) to get reference protein contents to normalize the nucleotide levels. Protein concentrations were determined using the Bradford Reagent (Merck).

hSARM1 full length = biological target: T1, hSARM1 full length (Homo sapiens, UniProt Q6SZW1); experiment: Base exchange reactions at neutral pH (HPLC); type: biochemical
T1 construct: Human recombinant SARM1 full length proteins (wild-type and E642A mutant); made in house
T1 sequence (Q6SZW1 28-724): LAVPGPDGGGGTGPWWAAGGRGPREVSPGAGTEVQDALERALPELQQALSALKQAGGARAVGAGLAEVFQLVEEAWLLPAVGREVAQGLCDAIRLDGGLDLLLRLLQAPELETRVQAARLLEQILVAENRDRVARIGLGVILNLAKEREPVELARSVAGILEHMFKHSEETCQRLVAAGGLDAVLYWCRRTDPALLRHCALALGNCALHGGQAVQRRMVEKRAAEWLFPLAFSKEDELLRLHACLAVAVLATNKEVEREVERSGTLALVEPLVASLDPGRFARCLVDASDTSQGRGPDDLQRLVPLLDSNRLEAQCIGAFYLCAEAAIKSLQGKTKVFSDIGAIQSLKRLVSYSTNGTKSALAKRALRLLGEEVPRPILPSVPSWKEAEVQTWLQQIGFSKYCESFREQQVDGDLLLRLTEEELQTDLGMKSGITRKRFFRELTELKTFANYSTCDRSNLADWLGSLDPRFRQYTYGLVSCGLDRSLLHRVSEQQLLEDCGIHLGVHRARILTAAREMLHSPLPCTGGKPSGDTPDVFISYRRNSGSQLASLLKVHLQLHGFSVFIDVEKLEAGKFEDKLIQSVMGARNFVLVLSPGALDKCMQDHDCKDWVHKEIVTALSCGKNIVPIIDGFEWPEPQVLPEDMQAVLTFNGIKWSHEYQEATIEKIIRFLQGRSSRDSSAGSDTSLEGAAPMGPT

hCD38 = biological target: T2, hCD38 (Homo sapiens, UniProt P28907); experiment: Base exchange reactions at neutral pH (HPLC); type: biochemical
T2 construct: a soluble fragment Val43-Ile300 with 6x-His tag at C terminus; 6xHis (C); purchased R&D Systems
T2 sequence (P28907 43-300): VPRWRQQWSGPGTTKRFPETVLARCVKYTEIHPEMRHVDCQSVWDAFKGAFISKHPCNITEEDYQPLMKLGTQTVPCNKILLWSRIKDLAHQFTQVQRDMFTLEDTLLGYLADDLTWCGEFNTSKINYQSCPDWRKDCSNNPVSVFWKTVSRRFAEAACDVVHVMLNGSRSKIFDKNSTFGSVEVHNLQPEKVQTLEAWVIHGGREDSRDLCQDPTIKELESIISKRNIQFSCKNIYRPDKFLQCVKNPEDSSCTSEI

[1] = hSARM1 full length +NMN 0.2 mM, NAD […]
[2] = hSARM1 full length +NMN 0.2 mM, NAD […] alone or + free base
[3] = hSARM1 full length +NMN 0.2 mM, NAD […], relative to NAD alone without trigger
[4] = hSARM1 full length +NMN 0.2 mM, NADP […]
[5] = hSARM1 full length +NMN 0.2 mM, NADP […] alone or + free base
[6] = hSARM1 full length +NMN 0.2 mM, NADP […], relative to NADP alone without trigger
[7] = hSARM1 full length +VMN 0.05 mM, NAD […]
[8] = hSARM1 full length +VMN 0.05 mM, NAD […] alone or + free base
[9] = hSARM1 full length +VMN 0.05 mM, NAD […], relative to NAD alone without trigger
[10] = hSARM1 full length +VMN 0.05 mM, NADP […]
[11] = hSARM1 full length +VMN 0.05 mM, NADP […] alone or + free base
[12] = hSARM1 full length +VMN 0.05 mM, NADP […], relative to NADP alone without trigger
[13] = hSARM1 full length, no trigger, NAD […] alone or + AcPyr 2 mM / Vacor 0.5 mM / Na 2 mM, pH 7.5
[14] = hSARM1 full length, no trigger, NADP […] alone or + AcPyr 2 mM / Vacor 0.5 mM / Na 2 mM, pH 7.5
[15] = NAD […] alone or + AcPyr 2 mM / Vacor 0.5 mM / Na 2 mM
[16] = NADP […] alone or + AcPyr 2 mM / Vacor 0.5 mM / Na 2 mM

| Compound | SARM1 dependence of base exchange product formation (DRG neurons) | base exchange, share of products (hSARM1 full length; [1]) | cyclization, share of products (hSARM1 full length; [1]) | hydrolysis, share of products (hSARM1 full length; [1]) | rate (hSARM1 full length; [2]) | rate (relative fold) (hSARM1 full length; [3]) | base exchange, share of products (hSARM1 full length; [4]) | hydrolysis, share of products (hSARM1 full length; [4]) | rate (hSARM1 full length; [5]) | rate (relative fold) (hSARM1 full length; [6]) | base exchange, share of products (hSARM1 full length; [7]) | cyclization, share of products (hSARM1 full length; [7]) | hydrolysis, share of products (hSARM1 full length; [7]) | rate (hSARM1 full length; [8]) | rate (relative fold) (hSARM1 full length; [9]) | base exchange, share of products (hSARM1 full length; [10]) | hydrolysis, share of products (hSARM1 full length; [10]) | rate (hSARM1 full length; [11]) | rate (relative fold) (hSARM1 full length; [12]) | rate (hSARM1 full length; [13]) | other results |
| --- | --- | --- | --- | --- | --- | --- | --- | --- | --- | --- | --- | --- | --- | --- | --- | --- | --- | --- | --- | --- | --- |
| O=C(NCc1cccnc1)Nc1ccc([N+](=O)[O-])cc1 [Vacor, 1-(4-nitrophenyl)-3-(pyridin-3-ylmethyl)urea] | found only in wild-type DRGs | 20.86% | 7.06% | 72.08% | 180.1 ±8.72 mU/mg | 8.26 ±0.400 fold | 23.61% | 76.34% | 134.7 ±5.67 mU/mg | 9.16 ±0.386 fold | 44.98% | 4.75% | 50.27% | 206.2 ±1.12 mU/mg | 9.45 ±0.051 fold | 35.56% | 63.94% | 148.5 ±4.61 mU/mg | 10.11 ±0.314 fold | 29.5 ±2.55 mU/mg | VAD formed (DRG neurons; wild-type DRGs, vacor 50 μM): ~0.14 nmol/mg; cyclization, share of products (hSARM1 full length; [4]): ~ 0.05%; cyclization, share of products (hSARM1 full length; [10]): 0.50%; rate (hSARM1 full length; [14]): 22.9 ±1.68 mU/mg; base exchange products VAD(P) or NaAD(P), share of total products (hSARM1 full length; hSARM1 full length, NAD or NADP 250 μM, vacor 0.5 mM, Na 2 mM): 20%–30%; rate (hCD38; [15]): 6818 ±1376 mU/mg; rate (hCD38; [16]): 3496 ±593 mU/mg |
| CC(=O)c1cccnc1 [AcPyr, 3-acetylpyridine] | not in treated Sarm1^−/− cultures | 92.73% | 0.80% | 6.47% | 218.5 ±37.4 mU/mg | 10.02 ±1.71 fold | 93.20% | 6.80% | 131.1 ±17.0 mU/mg | 8.92 ±1.16 fold | 93.61% | 0.68% | 5.72% | 228.9 ±18.9 mU/mg | 10.49 ±0.867 fold | 94.18% | 5.82% | 140.7 ±13.3 mU/mg | 9.57 ±0.907 fold | 42.6 ±3.34 mU/mg | AcPyrAD formed (DRG neurons; wild-type DRGs, AcPyr 250 μM): 0.446 ± 0.021 nmol per mg of protein; rate (hSARM1 full length; [14]): 26.6 ±1.71 mU/mg; rate (hCD38; [15]): 8284 ±992 mU/mg; rate (hCD38; [16]): 3255 ±787 mU/mg |

— article PMC8844822, “SARM1 is a multi-functional NAD(P)ase with prominent base exchange activity, all regulated bymultiple physiologically relevant NAD metabolites” (iScience, 2022)
